Test results published in ChEMBL document CHEMBL4219212, “Synthesis of 3-(3-hydroxyphenyl)pyrrolidine dopamine D3 receptor ligands with extended functionality for probing the secondary binding pocket” (Bioorg Med Chem Lett, 2018).

Biological target: D(2) dopamine receptor (Homo sapiens, UniProt P14416)
Test: Binding affinity to human dopamine D2 receptor

Sequence of D(2) dopamine receptor (P14416 whole entry): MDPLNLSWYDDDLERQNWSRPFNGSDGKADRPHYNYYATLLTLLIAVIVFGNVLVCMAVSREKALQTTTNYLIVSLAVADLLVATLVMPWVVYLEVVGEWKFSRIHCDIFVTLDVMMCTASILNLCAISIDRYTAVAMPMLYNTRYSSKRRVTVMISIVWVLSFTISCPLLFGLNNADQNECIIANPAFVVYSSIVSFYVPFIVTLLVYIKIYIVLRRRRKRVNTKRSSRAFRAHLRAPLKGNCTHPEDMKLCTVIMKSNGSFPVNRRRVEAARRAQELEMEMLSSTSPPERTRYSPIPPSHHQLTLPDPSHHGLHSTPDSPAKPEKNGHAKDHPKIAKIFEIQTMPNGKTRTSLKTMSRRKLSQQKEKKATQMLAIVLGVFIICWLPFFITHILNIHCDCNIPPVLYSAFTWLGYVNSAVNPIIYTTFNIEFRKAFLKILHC

| Structure (SMILES) | Ki [nM] |
| --- | --- |
| CCCN1CCC(c2cccc(O)c2)C1 (stereo not drawn) | 68 |

Biological target: D(1A) dopamine receptor (Homo sapiens, UniProt P21728)
Sequence (P21728 whole entry): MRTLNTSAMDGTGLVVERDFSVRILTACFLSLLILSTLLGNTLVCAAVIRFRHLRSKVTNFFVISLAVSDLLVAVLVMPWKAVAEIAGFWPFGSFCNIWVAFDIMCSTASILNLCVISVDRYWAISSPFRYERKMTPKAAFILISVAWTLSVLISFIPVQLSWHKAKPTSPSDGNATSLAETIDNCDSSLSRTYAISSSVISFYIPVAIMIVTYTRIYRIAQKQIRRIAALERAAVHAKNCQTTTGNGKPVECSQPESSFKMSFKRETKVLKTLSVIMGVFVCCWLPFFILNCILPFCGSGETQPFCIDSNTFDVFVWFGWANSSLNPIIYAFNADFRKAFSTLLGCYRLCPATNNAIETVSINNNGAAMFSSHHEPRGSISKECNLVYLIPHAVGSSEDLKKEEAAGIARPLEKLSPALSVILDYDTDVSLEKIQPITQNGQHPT
Test: Displacement of [3H]SCH23390 from human dopamine D1 receptor expressed in HEK293T cell membranes by radioligand binding assay

| Structure (SMILES) | Ki [nM] |
| --- | --- |
| CCCCN1CCC(c2cccc(O)c2)C1 (stereo not drawn) | 861 |
| CCCCCCCCN1CCC(c2cccc(O)c2)C1 (stereo not drawn) | 170 |
| CCCCCCCCCN1CCC(c2cccc(O)c2)C1 (racemic) | 174 |
| CN(C)c1ccc(C(=O)NCCCCN2CCC(c3cccc(O)c3)C2)cc1 (racemic) | 831 |
| CCCCCCCCCN1CCC(c2cccc(O)c2)C1 (single isomer, unassigned; (+)) | > 10000 |
| CN(C)c1ccc(C(=O)NCCCCN2CCC(c3cccc(O)c3)C2)cc1 (single isomer, unassigned; (+)) | > 10000 |
| CCCCCCCCCN1CCC(c2cccc(O)c2)C1 (single isomer, unassigned; (-)) | 181 |
| CN(C)c1ccc(C(=O)NCCCCN2CCC(c3cccc(O)c3)C2)cc1 (single isomer, unassigned; (-)) | 4590 |
| CCCCCN1CCC(c2cccc(O)c2)C1 (stereo not drawn) | 542 |
| CCCCCCCN1CCC(c2cccc(O)c2)C1 (stereo not drawn) | 597 |
| CCCCCCCCCCN1CCC(c2cccc(O)c2)C1 (stereo not drawn) | 128 |
| CCCCCCN1CCC(c2cccc(O)c2)C1 (stereo not drawn) | 1280 |

Biological target: T1, 5-hydroxytryptamine receptor 1A (Homo sapiens, UniProt P08908)
T1 sequence (P08908 whole entry): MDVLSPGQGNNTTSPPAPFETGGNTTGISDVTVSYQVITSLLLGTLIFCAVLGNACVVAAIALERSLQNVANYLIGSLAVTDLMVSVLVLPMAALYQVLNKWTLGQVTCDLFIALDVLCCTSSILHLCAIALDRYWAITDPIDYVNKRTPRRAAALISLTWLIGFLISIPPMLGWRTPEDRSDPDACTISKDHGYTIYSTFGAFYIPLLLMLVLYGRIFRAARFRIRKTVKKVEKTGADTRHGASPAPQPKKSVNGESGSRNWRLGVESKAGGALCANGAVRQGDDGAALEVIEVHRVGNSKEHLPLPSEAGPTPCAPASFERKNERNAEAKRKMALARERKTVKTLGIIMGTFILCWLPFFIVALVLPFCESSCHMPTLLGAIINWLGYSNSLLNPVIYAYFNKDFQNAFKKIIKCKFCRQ
Test: Displacement of [3H]-Way100635 from 5HT1A receptor (unknown origin) expressed in stable CHO cell membranes by radioligand binding assay

| Structure (SMILES) | Ki [nM] |
| --- | --- |
| CCCCN1CCC(c2cccc(O)c2)C1 (stereo not drawn) | 1810 |
| CCCCCCCCN1CCC(c2cccc(O)c2)C1 (stereo not drawn) | 9.4 |
| CCCCCCCCCN1CCC(c2cccc(O)c2)C1 (racemic) | 15 |
| CCCCCCCCCN1CCC(c2cccc(O)c2)C1 (single isomer, unassigned; (+)) | 115 |
| CCCCCCCCCN1CCC(c2cccc(O)c2)C1 (single isomer, unassigned; (-)) | 48 |
| CCCCCN1CCC(c2cccc(O)c2)C1 (stereo not drawn) | 326 |
| CCCCCCCN1CCC(c2cccc(O)c2)C1 (stereo not drawn) | 19 |
| CCCCCCCCCCN1CCC(c2cccc(O)c2)C1 (stereo not drawn) | 12 |
| CCCCCCN1CCC(c2cccc(O)c2)C1 (stereo not drawn) | 272 |

Biological target: D(3) dopamine receptor (Homo sapiens, UniProt P35462)
Sequence (P35462 whole entry): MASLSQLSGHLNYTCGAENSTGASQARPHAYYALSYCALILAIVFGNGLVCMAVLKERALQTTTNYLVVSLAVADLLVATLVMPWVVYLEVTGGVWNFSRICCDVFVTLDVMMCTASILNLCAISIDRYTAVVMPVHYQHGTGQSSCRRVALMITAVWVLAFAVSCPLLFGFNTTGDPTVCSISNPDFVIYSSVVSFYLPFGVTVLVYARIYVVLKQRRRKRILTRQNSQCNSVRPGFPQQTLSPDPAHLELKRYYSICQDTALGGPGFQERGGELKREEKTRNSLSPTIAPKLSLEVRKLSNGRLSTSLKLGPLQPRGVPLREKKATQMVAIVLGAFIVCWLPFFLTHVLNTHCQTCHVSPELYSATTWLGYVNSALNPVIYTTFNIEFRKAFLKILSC
Test: Binding affinity to human dopamine D3 receptor

| Structure (SMILES) | Ki [nM] |
| --- | --- |
| CCCN1CCC(c2cccc(O)c2)C1 (stereo not drawn) | 52 |
